Source: paper PMC6832230, “Anti-Inflammatory Activity of Some Characteristic Constituents from the Vine Stems of Spatholobus suberectus” (Molecules, 2019)
Entries after “also recorded” stand apart in the source; their conditions may differ. Where two headings read alike, the source gives them in different places. Blank lines part the entries; values can stand above or below the compound they belong to.

What was measured:
Cytotoxicity assay (MTT) = conditions: mouse
Procedure: (§3) The toxicities of different concentrations of compounds to cells were evaluated using the MTT assay [32, 33]. Firstly, the RAW 264.7 cells were maintained in DMEM with 10% FBS at 37 °C in a humid atmosphere containing 5% CO2. Then, the cells were seeded in 96-well plates (3 × 10^4 cells/well) after being passaged three times at a 1:3 split ratio. […] After being cultured for 24 h, the supernatant (100 μL) was transferred out and MTT (5 mg/mL, 20 μL for each well) was added, and the mixed solvent of 0.012 M HCl, 5% i-PrOH, and 10% sodium dodecyl sulfate (100 μL) was added 4 h later. The absorbance value was measured at 492 nm by a Thermo Multiskan MK3 microplate reader (Thermo-Labsystem, Franklin, MA, USA).

IL-1β mRNA = assay: qPCR assay of IL-1β mRNA expression in LPS-stimulated RAW264.7 cells; assay type: cell-based; conditions: 24 h
Procedure: (§1) The RAW264.7 cells were seeded in 12-well plates at 3 × 10^4 cells/well; after being stimulated by LPS (1.0 μg/mL) and treated with two different concentrations of compounds for 24 h, the total RNA was extracted from the cells with Trizol reagent (Invitrogen, Thermo Fisher Scientific Inc., Waltham, MA, USA). After measuring the concentration, 1 μg of total RNA was used to obtain complementary DNA (cDNA) with a qRT super mix (Bimake Co., Ltd., Houston, SD, USA). The amplification of cDNA was carried out on a Quantitative RT-PCR system (Agilent Technologies, Stratagene, Inc., Santa Clara, CA, USA) using SYBR green qPCR master mix (Bimake Co., Ltd., Houston, SD, USA). The thermal cycling conditions were as follows: 95 °C for 10 min, 40 cycles of 95 °C for 30 s, 55 °C for 1 min, and 72 °C for 1 min, followed by 95 °C for 1 min, 55 °C for 30 s, and 95 °C for 30 s.
(§2) The IC50 values for NO inhibitory effects were calculated using SPSS v.20.0 (SPSS Inc., Chicago, IL, USA) and results were given as means ± SD. The mRNA expression levels were compared using variance analysis with GraphPad Prism 7.0 (GraphPad Software Inc., San Diego, CA, USA), and results were expressed as means ± SEM. All tests were carried out in triplicate.

[1] = tested on: nitric oxide (NO) production in RAW264.7 macrophages stimulated by lipopolysaccharide; assay: NO inhibition assay (Griess method) in LPS-stimulated RAW264.7 cells; assay type: cell-based; conditions: for IC50: read-out: IC50 of inhibition of NO production; for SI (selectivity index): calculated from CC50 and IC50
From the text: As a kind of pro-inflammatory mediator, NO plays a complex role and participates in many different kinds of inflammatory reactions, the level of which usually varies to different pathological degrees. The isolated novel compounds and 10 known ones in this research were chosen to evaluate the activity of inhibiting NO released by RAW264.7 cells after being stimulated by LPS.
The Griess method is generally used for determining NO concentration in anti-inflammatory experiments. The supernatant removed from the 96-well plates mentioned in Section 3.3.1 was interacted with Griess reagent (100 μL), and the absorbance was measured at 540 nm after 15 min. Two drugs, L-NIL and IND, were used as positive controls for comparative analysis in the test.
as §2

iNOS mRNA = assay: qPCR assay of iNOS mRNA expression in LPS-stimulated RAW264.7 cells; assay type: cell-based; conditions: 24 h
Procedure: as §1, §2

COX-2 mRNA = assay: qPCR assay of COX-2 mRNA expression in LPS-stimulated RAW264.7 cells; assay type: cell-based; conditions: 24 h
Procedure: as §1, §2

TNF-α mRNA = assay: qPCR assay of TNF-α mRNA expression in LPS-stimulated RAW264.7 cells; assay type: cell-based; conditions: 24 h
Procedure: as §1, §2

IL-6 mRNA = assay: qPCR assay of IL-6 mRNA expression in LPS-stimulated RAW264.7 cells; assay type: cell-based; conditions: 24 h
Procedure: After measuring the concentration, 1 μg of total RNA was used to obtain complementary DNA (cDNA) with a qRT super mix (Bimake Co., Ltd., Houston, SD, USA). The amplification of cDNA was carried out on a Quantitative RT-PCR system (Agilent Technologies, Stratagene, Inc., Santa Clara, CA, USA) using SYBR green qPCR master mix (Bimake Co., Ltd., Houston, SD, USA). The thermal cycling conditions were as follows: 95 °C for 10 min, 40 cycles of 95 °C for 30 s, 55 °C for 1 min, and 72 °C for 1 min, followed by 95 °C for 1 min, 55 °C for 30 s, and 95 °C for 30 s. […] The mRNA expression levels were compared using variance analysis with GraphPad Prism 7.0 (GraphPad Software Inc., San Diego, CA, USA), and results were expressed as means ± SEM. All tests were carried out in triplicate.

[2] = RAW 264.7 cells, CC50 (median cytotoxic concentration), RAW 264.7 cells, MTT, 24 h, n = 3, >200: CC50 could not be obtained, cell survival rate >98% at 200–6.25 μM
[3] = at 40 μM and 50 μM, LPS-stimulated RAW264.7 cells
[4] = Mus musculus, RAW264.7, 24 h, RAW264.7 cells, LPS 1 μg/mL, 24 h, Griess, n = 3, mean ± SD
[5] = LPS 1.0 μg/mL, RAW264.7 cells, concentration not given
[6] = at 20 μM and 30 μM, vs LPS group, RAW264.7 cells
[7] = RAW264.7 cells, LPS 1 μg/mL, 24 h, Griess, n = 3, mean ± SD
[8] = at 5 μM and 10 μM, LPS-stimulated RAW264.7 cells

Procedure for RAW 264.7 cells: as §3

Compound: COc1ccc(-c2coc3cc(O)ccc3c2=O)cc1 [Compound 11, formononetin]
effect on mRNA expression of iNOS (iNOS mRNA; [5]): notably downregulated | CC50 at 24 h (Cytotoxicity assay (MTT); [2]): 103 ± 9.56 µM | IC50 [1, 4]: 21.1 ± 4.8 µM | SI (selectivity index) [1]: 4.88 | effect on mRNA expression of COX-2 (COX-2 mRNA; [5]): notably downregulated

Compound: COc1ccc(-c2cc3cc(O)c(O)cc3oc2=O)c(OC)c1OC [Compound 6, 3-(2′,3′,4′-trimethoxyphenyl)-6,7-dihydroxycoumarin]
effect on mRNA expression of iNOS (iNOS mRNA; [5]): can reduce | effect on mRNA expression of iNOS (iNOS mRNA; [6]): reduced significantly | effect on mRNA expression of TNF-α (TNF-α mRNA; [5]): can reduce | effect on mRNA expression of TNF-α (TNF-α mRNA; [6]): reduced significantly | CC50 at 24 h (Cytotoxicity assay (MTT); [2]): > 200 µM | effect on mRNA expression of IL-1β (IL-1β mRNA; [6]): reduced significantly | IC50 [1, 4]: 28.3 µM | IC50 [1, 7]: 28.3 ± 6.44 µM | SI (selectivity index) [1]: 24.81 | effect on mRNA expression of COX-2 (COX-2 mRNA; [5]): can reduce

Compound: COC1=CC(=O)C=C(OC)C1=O [Compound 1, 2,6-dimethoxy-1,4-benzoquinone]
effect on mRNA expression of iNOS (iNOS mRNA; [5]): can reduce | effect on mRNA expression of iNOS (iNOS mRNA; [8]): markedly reduced | effect on mRNA expression of TNF-α (TNF-α mRNA; [5]): can reduce | effect on mRNA expression of TNF-α (TNF-α mRNA; [8]): markedly reduced | CC50 at 24 h (Cytotoxicity assay (MTT); RAW 264.7 cells): 26.2 ± 1.26 µM | effect on mRNA expression of IL-1β (IL-1β mRNA; [8]): markedly reduced | inhibition of NO production compared with L-NIL (in words) ([1]; LPS-stimulated RAW264.7 cells): potent inhibition | IC50 ([1]; Mus musculus, RAW264.7, 24 h): 5.69 ± 0.28 µM | SI (selectivity index) [1]: 4.61 | effect on mRNA expression of IL-6 (IL-6 mRNA; [8]): markedly reduced | effect on mRNA expression of COX-2 (COX-2 mRNA; [5]): can reduce | effect on mRNA expression of COX-2 (COX-2 mRNA; [8]): markedly reduced

Compound: CC(=N)NCCCC[C@H](N)C(=O)O [L-NIL, L-N^6-(1-iminoethyl)-lysine, reference compound]
CC50 at 24 h (Cytotoxicity assay (MTT); [2]): > 200 µM | IC50 ([1]; Mus musculus, RAW264.7, 24 h): 19.1 ± 1.18 µM | SI (selectivity index) [1]: >10.48

Compound: CCCCCC(=O)CCC(=O)OCCc1ccc(O)c(OC)c1 [Compound 5, Homovanillyl-4-oxo-nonanoate]
CC50 at 24 h (Cytotoxicity assay (MTT); [2]): > 200 µM | IC50 [1, 4]: 45.9 ± 4.76 µM | SI (selectivity index) [1]: >4.36

Compound: COc1ccc2c(c1)c(CC(=O)O)c(C)n2C(=O)c1ccc(Cl)cc1 [IND, indomethacin, reference compound]
CC50 at 24 h (Cytotoxicity assay (MTT); [2]): 633 ± 75.1 µM | IC50 [1, 4]: 55.4 ± 3.71 µM | SI (selectivity index) [1]: 11.43

Compound: COc1ccc(-c2coc3cc([O-])ccc3c2=O)cc1.[Na+] [Compound 7, formononetin sodium]
effect on mRNA expression of iNOS (iNOS mRNA; [5]): negate the effect | effect on mRNA expression of TNF-α (TNF-α mRNA; [5]): negate the effect | effect on mRNA expression of IL-1β (IL-1β mRNA; [5]): negate the effect | IC50 [1, 7]: 22.8 ± 0.55 µM | SI (selectivity index) [1]: 14.73 | effect on mRNA expression of IL-6 (IL-6 mRNA; [5]): negate the effect

Compound: O=C(/C=C/c1ccc(O)cc1)c1ccc(O)cc1O [Compound 10, isoliquiritigenin]
effect on mRNA expression of iNOS (iNOS mRNA; [5]): can reduce | effect on mRNA expression of TNF-α (TNF-α mRNA; [5]): can reduce; also recorded: significantly downregulate | CC50 at 24 h (Cytotoxicity assay (MTT); [2]): 133 ± 2.11 µM | IC50 [1, 4]: 6.78 ± 0.59 µM | SI (selectivity index) [1]: 19.68 | effect on mRNA expression of COX-2 (COX-2 mRNA; [5]): can reduce

Compound: O=c1c(-c2ccc(O)cc2)coc2cc(O[C@@H]3O[C@H](CO)[C@@H](O)[C@H](O)[C@H]3O)cc(O)c12 [Compound 13, genistin]
effect on mRNA expression of iNOS (iNOS mRNA; [5]): could not inhibit | effect on mRNA expression of TNF-α (TNF-α mRNA; [5]): could not inhibit | CC50 at 24 h (Cytotoxicity assay (MTT); [2]): > 200 µM | effect on mRNA expression of IL-1β (IL-1β mRNA; [5]): declined sharply | IC50 [1, 4]: 36.4 ± 2.47 µM | effect on mRNA expression of COX-2 (COX-2 mRNA; [5]): could not inhibit

Compound: O=c1c(-c2ccc(O)cc2)coc2cc(O)cc(O)c12 [Compound 9, genistein]
effect on mRNA expression of iNOS (iNOS mRNA; [5]): can reduce | effect on mRNA expression of iNOS (iNOS mRNA; [6]): strikingly downregulated | effect on mRNA expression of TNF-α (TNF-α mRNA; [5]): can reduce | effect on mRNA expression of TNF-α (TNF-α mRNA; [6]): strikingly downregulated | CC50 at 24 h (Cytotoxicity assay (MTT)): > 200 µM | IC50 [1, 4]: 16.9 ± 3.39 µM | SI (selectivity index) [1]: 210.84 | effect on mRNA expression of COX-2 (COX-2 mRNA; [5]): can reduce | effect on mRNA expression of COX-2 (COX-2 mRNA; [6]): strikingly downregulated

Compound: O=C1C[C@@H](c2ccc(O)cc2)Oc2cc(O)ccc21 [Compound 8, liquiritigenin]
effect on mRNA expression of TNF-α (TNF-α mRNA; [5]): significantly downregulate | CC50 at 24 h (Cytotoxicity assay (MTT); [2]): > 200 µM | IC50 [1, 4]: 16.3 ± 4.45 µM | SI (selectivity index) [1]: 19.25

More lines, main results first:

IC50 [1, 4]: 40.1 ± 6.94 µM
Compound: Oc1ccc2c(c1)OC[C@H](c1cc3c(cc1O)OCO3)[C@H]2O [Compound 4, (3S,4R)-7,2′-dihydroxy-4′,5′-methylenedioxy-isoflavan-4-ol]
CC50 at 24 h (Cytotoxicity assay (MTT); [2]): > 200 µM | effect on mRNA expression of IL-1β (IL-1β mRNA; [3]): could inhibit | SI (selectivity index) [1]: 7.50

IC50 [1, 4]: > 200 µM
Compound: COc1ccc([C@@H]2COc3cc(O)ccc3C2)c(O[C@@H]2O[C@H](CO)[C@@H](O)[C@H](O)[C@H]2O)c1 [Compound 15, (3R)-vestitol-2′-O-β-D-glucopyranoside]
CC50 at 24 h (Cytotoxicity assay (MTT); [2]): > 200 µM | SI (selectivity index) [1]: <1.98

IC50 [1, 4]: 123 ± 9.92 µM
Compound: COc1ccc(C2COc3cc(OC4OC(CO)C(O)C(O)C4O)ccc3C2O)c(O)c1 [Compound 14, (3S,4R)-4,2′-dihydroxy-4′-methoxy-isoflavanol-7-glucopyranoside]
CC50 at 24 h (Cytotoxicity assay (MTT); [2]): > 200 µM | SI (selectivity index) [1]: 5.86

IC50 [1, 7]: 35.4 ± 2.92 µM
Compound: 4,7,2′-trihydroxy-4′-methoxy-isoflavanol [Compound 3]
effect on mRNA expression of IL-1β (IL-1β mRNA; [3]): could inhibit | CC50 (RAW 264.7 cells): > 200 µM

IC50 [1, 4]: 46.3 ± 5.83 µM
Compound: COc1c(O)ccc2c1OC[C@H](c1cc3c(cc1O)OCO3)[C@H]2O [Compound 2, (3S,4R)-7,2′-dihydroxy-8-methoxy-4′,5′-methylenedioxy-isoflavan-4-ol]
CC50 at 24 h (Cytotoxicity assay (MTT); [2]): > 200 µM | SI (selectivity index) [1]: >4.32

IC50 [1, 4]: 35.5 ± 2.69 µM
Compound: O=c1c(-c2ccc(O)cc2)coc2cc(O)ccc12 [Compound 12, daidzein]
CC50 at 24 h (Cytotoxicity assay (MTT); [2]): > 200 µM | effect on mRNA expression of IL-1β (IL-1β mRNA; [5]): inhibition | SI (selectivity index) [1]: 11.64 | effect on mRNA expression of IL-6 (IL-6 mRNA; [5]): inhibition
